One data set addresses T1, Glucocorticoid receptor (Homo sapiens, UniProt P04150).
T1 sequence (P04150 whole entry): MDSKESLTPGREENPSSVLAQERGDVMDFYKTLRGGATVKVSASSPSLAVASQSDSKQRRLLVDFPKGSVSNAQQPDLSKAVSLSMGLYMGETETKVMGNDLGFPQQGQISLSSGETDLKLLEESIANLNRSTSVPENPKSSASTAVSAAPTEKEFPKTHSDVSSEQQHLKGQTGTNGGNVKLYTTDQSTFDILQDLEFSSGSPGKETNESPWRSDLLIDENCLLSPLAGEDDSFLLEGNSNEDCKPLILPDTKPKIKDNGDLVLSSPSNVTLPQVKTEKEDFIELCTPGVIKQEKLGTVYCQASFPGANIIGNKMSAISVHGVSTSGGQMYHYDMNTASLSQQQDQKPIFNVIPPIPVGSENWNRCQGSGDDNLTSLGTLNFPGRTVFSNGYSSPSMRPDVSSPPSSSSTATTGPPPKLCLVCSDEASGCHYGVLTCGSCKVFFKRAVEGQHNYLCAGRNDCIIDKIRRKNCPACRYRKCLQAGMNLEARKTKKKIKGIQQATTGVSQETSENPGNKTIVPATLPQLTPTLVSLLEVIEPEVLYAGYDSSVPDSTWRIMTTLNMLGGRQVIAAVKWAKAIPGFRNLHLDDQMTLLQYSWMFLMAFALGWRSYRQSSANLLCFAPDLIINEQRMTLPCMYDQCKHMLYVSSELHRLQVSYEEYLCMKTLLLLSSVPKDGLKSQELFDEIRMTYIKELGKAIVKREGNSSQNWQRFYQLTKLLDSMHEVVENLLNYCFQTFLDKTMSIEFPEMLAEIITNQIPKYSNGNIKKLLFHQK
The settings on record: hela s3.
Chain of 5-hydroxytryptamine receptor 1B (P28564 whole entry): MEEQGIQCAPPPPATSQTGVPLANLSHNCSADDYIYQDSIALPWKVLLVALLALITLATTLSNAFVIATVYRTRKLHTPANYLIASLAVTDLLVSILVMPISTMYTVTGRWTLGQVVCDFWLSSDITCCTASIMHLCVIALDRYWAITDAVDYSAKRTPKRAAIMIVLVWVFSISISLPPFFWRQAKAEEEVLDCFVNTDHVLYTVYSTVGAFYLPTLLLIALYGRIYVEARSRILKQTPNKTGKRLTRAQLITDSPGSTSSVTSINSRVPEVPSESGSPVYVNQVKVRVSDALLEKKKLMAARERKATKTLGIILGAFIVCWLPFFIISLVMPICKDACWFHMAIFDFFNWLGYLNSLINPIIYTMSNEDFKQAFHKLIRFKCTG
For the compound `COc1ccc(C2C(=O)c3ccccc3C2=O)cc1` [ANISINDIONE], the IC50 result is reported as “Not Active”.
As to `O=C1O[C@H]([C@@H](O)CO)C(O)=C1O` [ASCORBIC ACID], the IC50 entry is reported as “Not Active”.
Still for that read-out and setting: in the case of `CN1[C@@H]2CC[C@H]1C[C@@H](OC(=O)C(CO)c1ccccc1)C2` (some centres not stated) [ATROPINE] it was “Not Active”; in that of `CC(C(=O)O)c1ccc2oc(-c3ccc(Cl)cc3)nc2c1` (configuration not stated) [BENOXAPROFEN], “Not Active”; in that of `COc1ccc2cc3[n+](cc2c1OC)CCc1cc2c(cc1-3)OCO2.[Cl-]` [BERBERINE CHLORIDE], “Not Active”.
Turning to `O=C(O)CCNC(=O)c1ccccc1` [BETAMIPRON], the IC50 result is reported as “Not Active”.

Tested on in the next data set: not listed separately
In words: DRUGMATRIX: Calcium Channel Type L, Dihydropyridine radioligand binding (ligand: [3H] Nitrendipine). In kind it is cell membranes, Rattus norvegicus, Wistar, Cerebral cortex, Membrane. The settings on record: Not Active = under 50% inhibition at 10 µM.
As to `COc1ccc(C2C(=O)c3ccccc3C2=O)cc1` [ANISINDIONE], the IC50 result is reported as “Not Active” and the Ki result is recorded as “Not Active”.
For the compound `O=C1O[C@H]([C@@H](O)CO)C(O)=C1O` [ASCORBIC ACID], the IC50 result is listed as “Not Active” and the Ki result is listed as “Not Active”.
Regarding `CN1[C@@H]2CC[C@H]1C[C@@H](OC(=O)C(CO)c1ccccc1)C2` (some centres not stated) [ATROPINE], the IC50 result is “Not Active” and the Ki entry is reported as “Not Active”.
With `CC(C(=O)O)c1ccc2oc(-c3ccc(Cl)cc3)nc2c1` (configuration not stated) [BENOXAPROFEN], the IC50 result is given as “Not Active” and the Ki result is listed as “Not Active”.
With `COc1ccc2cc3[n+](cc2c1OC)CCc1cc2c(cc1-3)OCO2.[Cl-]` [BERBERINE CHLORIDE], the IC50 result is “Not Active” and the Ki result is on record as “Not Active”.
As for `O=C(O)CCNC(=O)c1ccccc1` [BETAMIPRON], the IC50 result is given as “Not Active” and the inhibition constant Ki result is “Not Active”.

The next data set deals with T2, B2 bradykinin receptor (Homo sapiens, UniProt P30411).
T2 sequence (P30411 whole entry): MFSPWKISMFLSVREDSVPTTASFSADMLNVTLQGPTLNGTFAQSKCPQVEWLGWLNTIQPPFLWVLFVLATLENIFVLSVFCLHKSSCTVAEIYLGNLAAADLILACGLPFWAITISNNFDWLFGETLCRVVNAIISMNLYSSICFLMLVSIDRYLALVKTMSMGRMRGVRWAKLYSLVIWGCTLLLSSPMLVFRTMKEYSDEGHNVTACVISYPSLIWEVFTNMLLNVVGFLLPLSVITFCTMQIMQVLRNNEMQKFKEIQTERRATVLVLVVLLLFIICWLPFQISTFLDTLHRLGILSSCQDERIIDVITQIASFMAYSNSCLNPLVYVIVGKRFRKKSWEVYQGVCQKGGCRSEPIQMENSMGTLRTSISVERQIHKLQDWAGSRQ
Type of data set: cell membranes, Membrane. The settings on record: chem-1.
Regarding `COc1ccc(C2C(=O)c3ccccc3C2=O)cc1` [ANISINDIONE], the IC50 result is listed as “Not Active”.
The same measure, in the same setting: in the case of `O=C1O[C@H]([C@@H](O)CO)C(O)=C1O` [ASCORBIC ACID] it was “Not Active”; in that of `CN1[C@@H]2CC[C@H]1C[C@@H](OC(=O)C(CO)c1ccccc1)C2` (some centres not stated) [ATROPINE], “Not Active”; in that of `CC(C(=O)O)c1ccc2oc(-c3ccc(Cl)cc3)nc2c1` (configuration not stated) [BENOXAPROFEN], “Not Active”.
On the same count and under the same terms, next, `COc1ccc2cc3[n+](cc2c1OC)CCc1cc2c(cc1-3)OCO2.[Cl-]` [BERBERINE CHLORIDE]: “Not Active”; `O=C(O)CCNC(=O)c1ccccc1` [BETAMIPRON]: “Not Active”.

The target in the next data set is T3, Cytochrome P450 2A6 (Homo sapiens, UniProt P11509). Note: in other assays of this panel Not Active means under 50% inhibition at 10 µM.
T3 sequence (P11509 whole entry): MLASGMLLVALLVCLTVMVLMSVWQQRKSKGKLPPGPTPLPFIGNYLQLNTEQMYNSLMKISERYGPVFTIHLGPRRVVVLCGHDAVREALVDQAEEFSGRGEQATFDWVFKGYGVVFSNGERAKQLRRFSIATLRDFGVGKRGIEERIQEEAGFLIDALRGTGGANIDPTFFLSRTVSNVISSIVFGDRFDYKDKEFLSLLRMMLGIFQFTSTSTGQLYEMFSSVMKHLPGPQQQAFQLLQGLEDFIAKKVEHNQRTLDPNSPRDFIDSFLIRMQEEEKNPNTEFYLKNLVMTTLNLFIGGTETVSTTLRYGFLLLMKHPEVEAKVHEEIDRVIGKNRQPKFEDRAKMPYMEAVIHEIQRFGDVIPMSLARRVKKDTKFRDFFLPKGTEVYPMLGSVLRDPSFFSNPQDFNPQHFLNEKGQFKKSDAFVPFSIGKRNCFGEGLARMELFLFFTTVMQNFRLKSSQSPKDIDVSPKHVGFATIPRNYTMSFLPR
The settings on record: bti-tn-5b1-4.
Consider `COc1ccc(C2C(=O)c3ccccc3C2=O)cc1` [ANISINDIONE], for which the IC50 result is reported as “Not Active” and the inhibition constant (Ki) entry is listed as “Not Active”.
Turning to `O=C1O[C@H]([C@@H](O)CO)C(O)=C1O` [ASCORBIC ACID], the IC50 result was “Not Active” and the Ki entry was “Not Active”.
For `CN1[C@@H]2CC[C@H]1C[C@@H](OC(=O)C(CO)c1ccccc1)C2` (some centres not stated) [ATROPINE], the 50% inhibitory concentration (IC50) result is “Not Active” and the Ki entry was “Not Active”.
`CC(C(=O)O)c1ccc2oc(-c3ccc(Cl)cc3)nc2c1` (configuration not stated) [BENOXAPROFEN]: the half-inhibitory concentration (IC50) result is listed as “Not Active” and the Ki entry is listed as “Not Active”.
For the compound `COc1ccc2cc3[n+](cc2c1OC)CCc1cc2c(cc1-3)OCO2.[Cl-]` [BERBERINE CHLORIDE], the IC50 result was “Not Active” and the Ki entry is listed as “Not Active”.
With `O=C(O)CCNC(=O)c1ccccc1` [BETAMIPRON], the IC50 result is recorded as “Not Active” and the Ki entry is on record as “Not Active”.

A further data set concerns the target Protein kinase C alpha type (Homo sapiens, UniProt P17252). Type of data set: cell-based. The settings on record: sf9.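 Note: inhibition of PKCalpha kinase activity measured in an enzyme assay with histone as the phosphorylation substrate; in other assays of this panel Not Active means under 50% inhibition at 10 µM.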
Consider `COc1ccc(C2C(=O)c3ccccc3C2=O)cc1` [ANISINDIONE], for which the IC50 result was “Not Active”.
The same measure, in the same setting: in the case of `O=C1O[C@H]([C@@H](O)CO)C(O)=C1O` [ASCORBIC ACID] it was “Not Active”.
Same read-out and setting: next, `CN1[C@@H]2CC[C@H]1C[C@@H](OC(=O)C(CO)c1ccccc1)C2` (some centres not stated) [ATROPINE]: “Not Active”; `CC(C(=O)O)c1ccc2oc(-c3ccc(Cl)cc3)nc2c1` (configuration not stated) [BENOXAPROFEN]: “Not Active”.
For the compound `COc1ccc2cc3[n+](cc2c1OC)CCc1cc2c(cc1-3)OCO2.[Cl-]` [BERBERINE CHLORIDE], the IC50 entry is reported as “Not Active”.
Still for that read-out and setting: in the case of `O=C(O)CCNC(=O)c1ccccc1` [BETAMIPRON] it was “Not Active”.

The next data set addresses 5-hydroxytryptamine receptor 1B (Rattus norvegicus, UniProt P28564). Type of data set: cell membranes, Wistar, Cerebral cortex, Membrane.
Details: not given
With `COc1ccc(C2C(=O)c3ccccc3C2=O)cc1` [ANISINDIONE], the IC50 result is “Not Active”.
The same measure, in the same setting: next, `O=C1O[C@H]([C@@H](O)CO)C(O)=C1O` [ASCORBIC ACID]: “Not Active”.
On the same count and under the same terms, next, `CN1[C@@H]2CC[C@H]1C[C@@H](OC(=O)C(CO)c1ccccc1)C2` (some centres not stated) [ATROPINE]: “Not Active”.
Consider `CC(C(=O)O)c1ccc2oc(-c3ccc(Cl)cc3)nc2c1` (configuration not stated) [BENOXAPROFEN], for which the IC50 entry was “Not Active”.
`COc1ccc2cc3[n+](cc2c1OC)CCc1cc2c(cc1-3)OCO2.[Cl-]` [BERBERINE CHLORIDE]: the IC50 entry is “Not Active”.
`O=C(O)CCNC(=O)c1ccccc1` [BETAMIPRON]: the IC50 entry is on record as “Not Active”.

Tested on in the next data set: not listed separately
As to the kind of experiment: DRUGMATRIX: Nicotinic Acetylcholine radioligand binding (ligand: [125I] Epibatidine). Type of data set: cell membranes, Membrane. The settings on record: imr-32; Not Active = under 50% inhibition at 10 µM.
For the compound `COc1ccc(C2C(=O)c3ccccc3C2=O)cc1` [ANISINDIONE], the IC50 entry was “Not Active” and the Ki result is reported as “Not Active”.
Regarding `O=C1O[C@H]([C@@H](O)CO)C(O)=C1O` [ASCORBIC ACID], the IC50 entry is given as “Not Active” and the Ki result was “Not Active”.
Regarding `CN1[C@@H]2CC[C@H]1C[C@@H](OC(=O)C(CO)c1ccccc1)C2` (some centres not stated) [ATROPINE], the IC50 result was “Not Active” and the inhibition constant (Ki) entry is reported as “Not Active”.
For `CC(C(=O)O)c1ccc2oc(-c3ccc(Cl)cc3)nc2c1` (configuration not stated) [BENOXAPROFEN], the IC50 result was “Not Active” and the Ki entry is “Not Active”.
As to `COc1ccc2cc3[n+](cc2c1OC)CCc1cc2c(cc1-3)OCO2.[Cl-]` [BERBERINE CHLORIDE], the IC50 result is “Not Active” and the Ki entry is “Not Active”.
With `O=C(O)CCNC(=O)c1ccccc1` [BETAMIPRON], the IC50 result is reported as “Not Active” and the Ki result was “Not Active”.

Tested on in another data set: not listed separately
In words: DRUGMATRIX: Sigma2 radioligand binding (ligand: [3H] Ifenprodil). In kind it is cell membranes, Rattus norvegicus, Wistar, Brain, Membrane. The note with it: Not Active = under 50% inhibition at 10 µM.
For the compound `COc1ccc(C2C(=O)c3ccccc3C2=O)cc1` [ANISINDIONE], the half-maximal inhibitory concentration (IC50) entry was “Not Active” and the Ki result is “Not Active”.
On to `O=C1O[C@H]([C@@H](O)CO)C(O)=C1O` [ASCORBIC ACID], for which the concentration for half-maximal inhibition (IC50) entry is recorded as “Not Active” and the Ki result is on record as “Not Active”.
In the case of `CN1[C@@H]2CC[C@H]1C[C@@H](OC(=O)C(CO)c1ccccc1)C2` (some centres not stated) [ATROPINE], the IC50 result is given as “Not Active” and the Ki entry was “Not Active”.
Turning to `CC(C(=O)O)c1ccc2oc(-c3ccc(Cl)cc3)nc2c1` (configuration not stated) [BENOXAPROFEN], the IC50 entry is “Not Active” and the inhibition constant Ki entry is recorded as “Not Active”.
Consider `O=C(O)CCNC(=O)c1ccccc1` [BETAMIPRON], for which the 50% inhibitory concentration (IC50) entry is on record as “Not Active” and the Ki entry was “Not Active”.

Staying with this data set, now noted: Not Active = under 50% inhibition at 10 µM; read-out: IC50.
As to `COc1ccc2cc3[n+](cc2c1OC)CCc1cc2c(cc1-3)OCO2.[Cl-]` [BERBERINE CHLORIDE], the IC50 worked out at 95 nM.

Still in this data set, the particulars now being: Not Active = under 50% inhibition at 10 µM; read-out: Ki.
For the compound `COc1ccc2cc3[n+](cc2c1OC)CCc1cc2c(cc1-3)OCO2.[Cl-]` [BERBERINE CHLORIDE], the Ki worked out at 59 nM.
